# Measured values from publication PMC6472001, “Phenolic Compounds from Humulus lupulus as Natural Antimicrobial Products: New Weapons in the Fight against Methicillin Resistant Staphylococcus aureus, Leishmania mexicana and Trypanosoma brucei Strains” (Molecules, 2019).
# Experiments:
# Type in all cases: cell-based
# [1] = system: Acinetobacter baumannii 9010; assay: First screening, agar dilution MIC
# Experimental: (§1) Clinical bacterial isolates from human samples collected in Lille (France) and some collection strains were used. The first screening step on pathogenic bacteria was carried out with crude hydro-alcoholic extracts of different hop parts (Table 1). The second screening was performed using sub-extracts of cones on Gram-positive bacteria, including methicillin-sensitive Staphylococcus aureus (MSSA) and methicillin-resistant Staphylococcus aureus […] (Table 2). These tests were carried out on Petri dishes, Mueller-Hinton Agar (MHA) (Oxoid, UK) was mixed with the plant extract solution in MeOH at 5% (solvent control: 5% MeOH). Final extract concentrations in Petri dishes ranged from 1250 to 4.9 µg/mL. A multi-headed inoculator allowed spotting bacterial strains at 10^5 CFU/mL in cysteinated Ringer (CR) solution (Merck®, France). Minimal Inhibitory Concentrations (MICs) were visually determined after 24 h of incubation at 37 °C.
# [2] = system: Acinetobacter baumannii 9011; assay: First screening, agar dilution MIC
# Experimental: as §1
# [3] = system: Citrobacter freundii 11041; assay: First screening, agar dilution MIC
# Experimental: as §1
# [4] = system: Citrobacter freundii 11042; assay: First screening, agar dilution MIC
# Experimental: as §1
# [5] = system: Corynebacterium T25-17; assay: First screening, agar dilution MIC
# Experimental: as §1
# [6] = system: Enterobacter cloacae 11050; assay: First screening, agar dilution MIC
# Experimental: as §1
# [7] = system: Enterobacter cloacae 11051; assay: First screening, agar dilution MIC
# Experimental: as §1
# [8] = system: Enterobacter cloacae 11053; assay: First screening, agar dilution MIC
# Experimental: as §1
# [9] = system: Enterococcus faecalis C159-6; assay: First screening, agar dilution MIC
# Experimental: as §1
# [10] = system: Enterococcus sp. 8153; assay: First screening, agar dilution MIC
# Experimental: as §1
# [11] = system: Escherichia coli 8138; assay: First screening, agar dilution MIC
# Experimental: as §1
# [12] = system: Escherichia coli 8157; assay: First screening, agar dilution MIC
# Experimental: as §1
# [13] = system: Escherichia coli ATCC 25922; assay: First screening, agar dilution MIC
# Experimental: as §1
# [14] = system: Klebsiella pneumoniae 11016; assay: First screening, agar dilution MIC
# Experimental: as §1
# [15] = system: Klebsiella pneumoniae 11017; assay: First screening, agar dilution MIC
# Experimental: as §1
# [16] = system: Mycobacterium smegmatis 5003; assay: First screening, agar dilution MIC
# Experimental: as §1
# [17] = system: Proteus mirabilis 11060; assay: First screening, agar dilution MIC
# Experimental: as §1
# [18] = system: Providencia stuartii 11038; assay: First screening, agar dilution MIC
# Experimental: as §1
# [19] = system: Pseudomonas aeruginosa 8131; assay: First screening, agar dilution MIC
# Experimental: as §1
# [20] = system: Pseudomonas aeruginosa ATCC 27583; assay: First screening, agar dilution MIC
# Experimental: as §1
# [21] = system: Salmonella sp. 11033; assay: First screening, agar dilution MIC
# Experimental: as §1
# [22] = system: Serratia marcescens 11056; assay: First screening, agar dilution MIC
# Experimental: as §1
# [23] = system: Serratia marcescens 11057; assay: First screening, agar dilution MIC
# Experimental: as §1
# [24] = system: Staphylococcus aureus 8146; assay: First screening, agar dilution MIC
# Experimental: as §1
# [25] = system: Staphylococcus aureus 8147; assay: First screening, agar dilution MIC
# Experimental: as §1
# [26] = system: Staphylococcus epidermidis 10282; assay: First screening, agar dilution MIC
# Experimental: as §1
# [27] = system: Staphylococcus epidermidis 5001; assay: First screening, agar dilution MIC
# Experimental: as §1
# [28] = system: Staphylococcus lugdunensis T26A3; assay: First screening, agar dilution MIC
# Experimental: as §1
# [29] = system: Staphylococcus warneri T12A12; assay: First screening, agar dilution MIC
# Experimental: as §1
# [30] = system: Stenotrophomonas maltophilia; assay: First screening, agar dilution MIC
# Experimental: as §1
# [31] = system: Streptococcus agalactiae T25-7; assay: First screening, agar dilution MIC
# Experimental: as §1
# [32] = system: Streptococcus agalactiae T53C2; assay: First screening, agar dilution MIC
# Experimental: as §1
# [33] = system: Streptococcus dysgalactiae T46C14; assay: First screening, agar dilution MIC
# Experimental: as §1
# [34] = system: Corynebacterium T25-17; assay: Second screening, agar dilution MIC; details: Table 2
# Experimental: as §1
# [35] = system: Enterococcus faecalis T26-B7; assay: Second screening, agar dilution MIC
# Experimental: as §1
# [36] = system: Enterococcus faecalis T34-2; assay: Second screening, agar dilution MIC
# Experimental: as §1
# [37] = system: Enterococcus faecalis T37A4; assay: Second screening, agar dilution MIC
# Experimental: as §1
# [38] = system: Enterococcus faecalis T39-C11; assay: Second screening, agar dilution MIC
# Experimental: as §1
# [39] = system: Staphylococcus aureus 8147; assay: Second screening, agar dilution MIC; details: Table 2
# Experimental: as §1
# [40] = system: Staphylococcus aureus CIP 224; assay: Second screening, agar dilution MIC
# Experimental: as §1
# [41] = system: Staphylococcus aureus T1.1; assay: Second screening, agar dilution MIC
# Experimental: as §1
# [42] = system: Staphylococcus aureus T25.10; assay: Second screening, agar dilution MIC
# Experimental: as §1
# [43] = system: Staphylococcus aureus T25.3; assay: Second screening, agar dilution MIC
# Experimental: as §1
# [44] = system: Staphylococcus aureus T25.9; assay: Second screening, agar dilution MIC
# Experimental: as §1
# [45] = system: Staphylococcus aureus T26A4; assay: Second screening, agar dilution MIC
# Experimental: as §1
# [46] = system: Staphylococcus aureus T28.1; assay: Second screening, agar dilution MIC
# Experimental: as §1
# [47] = system: Staphylococcus aureus T36B1; assay: Second screening, agar dilution MIC
# Experimental: as §1
# [48] = system: Staphylococcus aureus T47A12; assay: Second screening, agar dilution MIC
# Experimental: as §1
# [49] = system: Staphylococcus aureus T6.7; assay: Second screening, agar dilution MIC
# Experimental: as §1
# [50] = system: Staphylococcus epidermidis 5001; assay: Second screening, agar dilution MIC; details: Table 2
# Experimental: as §1
# [51] = system: Staphylococcus lugdunensis T26A3; assay: Second screening, agar dilution MIC; details: Table 2
# Experimental: as §1
# [52] = system: Staphylococcus pettenkoferi T3.3; assay: Second screening, agar dilution MIC
# Experimental: as §1
# [53] = system: Staphylococcus saprophyticus 08237; assay: Second screening, agar dilution MIC
# Experimental: as §1
# [54] = system: Streptococcus agalactiae 13225; assay: Second screening, agar dilution MIC
# Experimental: as §1
# [55] = system: Streptococcus agalactiae 13226; assay: Second screening, agar dilution MIC
# Experimental: as §1
# [56] = system: Streptococcus agalactiae T25.7; assay: Second screening, agar dilution MIC
# Experimental: as §1
# [57] = system: Streptococcus agalactiae T38.2; assay: Second screening, agar dilution MIC
# Experimental: as §1
# [58] = system: Streptococcus agalactiae T40A2; assay: Second screening, agar dilution MIC
# Experimental: as §1
structure (smiles),measurement,setting,value
"CNC(C)C1CCC(N)C(OC2C(N)CC(N)C(OC3OCC(C)(O)C(NC)C3O)C2O)O1 (stereo not shown) [GEN, Gentamicin]",Susceptibility to GEN,[1],S (Gentamicin (GEN) S ≤ 4)
same,Susceptibility to GEN,[2],R (R > 8)
same,Susceptibility to GEN,[3],S (Gentamicin (GEN) S ≤ 4)
same,Susceptibility to GEN,[4],S (Gentamicin (GEN) S ≤ 4)
same,Susceptibility to GEN,[5],S (Gentamicin (GEN) S ≤ 4)
same,Susceptibility to GEN,[6],S (Gentamicin (GEN) S ≤ 4)
same,Susceptibility to GEN,[7],R (R > 8)
same,Susceptibility to GEN,[8],S (Gentamicin (GEN) S ≤ 4)
same,Susceptibility to GEN,[9],R (R > 8)
same,Susceptibility to GEN,[10],R (R > 8)
same,Susceptibility to GEN,[11],S (Gentamicin (GEN) S ≤ 4)
same,Susceptibility to GEN,[12],S (Gentamicin (GEN) S ≤ 4)
same,Susceptibility to GEN,[13],S (Gentamicin (GEN) S ≤ 4)
same,Susceptibility to GEN,[14],S (Gentamicin (GEN) S ≤ 4)
same,Susceptibility to GEN,[15],S (Gentamicin (GEN) S ≤ 4)
same,Susceptibility to GEN,[16],S (Gentamicin (GEN) S ≤ 4)
same,Susceptibility to GEN,[17],S (Gentamicin (GEN) S ≤ 4)
same,Susceptibility to GEN,[18],S (Gentamicin (GEN) S ≤ 4)
same,Susceptibility to GEN,[19],S (Gentamicin (GEN) S ≤ 4)
same,Susceptibility to GEN,[20],R (R > 8)
same,Susceptibility to GEN,[21],S (Gentamicin (GEN) S ≤ 4)
same,Susceptibility to GEN,[22],S (Gentamicin (GEN) S ≤ 4)
same,Susceptibility to GEN,[23],R (R > 8)
same,Susceptibility to GEN,[24],S (Gentamicin (GEN) S ≤ 4)
same,Susceptibility to GEN,[25],S (Gentamicin (GEN) S ≤ 4)
same,Susceptibility to GEN,[26],S (Gentamicin (GEN) S ≤ 4)
same,Susceptibility to GEN,[27],S (Gentamicin (GEN) S ≤ 4)
same,Susceptibility to GEN,[28],S (Gentamicin (GEN) S ≤ 4)
same,Susceptibility to GEN,[29],S (Gentamicin (GEN) S ≤ 4)
same,Susceptibility to GEN,[30],S (Gentamicin (GEN) S ≤ 4)
same,Susceptibility to GEN,[31],R (R > 8)
same,Susceptibility to GEN,[32],S (Gentamicin (GEN) S ≤ 4)
same,Susceptibility to GEN,[33],S (Gentamicin (GEN) S ≤ 4)
same,Susceptibility to GEN,[34],S (Gentamicin (GEN) S ≤ 4)
same,Susceptibility to GEN,[35],R (R > 8)
same,Susceptibility to GEN,[36],S (Gentamicin (GEN) S ≤ 4)
same,Susceptibility to GEN,[37],R (R > 8)
same,Susceptibility to GEN,[38],S (Gentamicin (GEN) S ≤ 4)
same,Susceptibility to GEN,[39],S (Gentamicin (GEN) S ≤ 4)
same,Susceptibility to GEN,[40],S (Gentamicin (GEN) S ≤ 4)
same,Susceptibility to GEN,[41],S (Gentamicin (GEN) S ≤ 4)
same,Susceptibility to GEN,[42],S (Gentamicin (GEN) S ≤ 4)
same,Susceptibility to GEN,[43],S (Gentamicin (GEN) S ≤ 4)
same,Susceptibility to GEN,[44],S (Gentamicin (GEN) S ≤ 4)
same,Susceptibility to GEN,[45],S (Gentamicin (GEN) S ≤ 4)
same,Susceptibility to GEN,[46],S (Gentamicin (GEN) S ≤ 4)
same,Susceptibility to GEN,[47],S (Gentamicin (GEN) S ≤ 4)
same,Susceptibility to GEN,[48],S (Gentamicin (GEN) S ≤ 4)
same,Susceptibility to GEN,[49],S (Gentamicin (GEN) S ≤ 4)
same,Susceptibility to GEN,[50],S (Gentamicin (GEN) S ≤ 4)
same,Susceptibility to GEN,[51],S (Gentamicin (GEN) S ≤ 4)
same,Susceptibility to GEN,[52],S (Gentamicin (GEN) S ≤ 4)
same,Susceptibility to GEN,[53],S (Gentamicin (GEN) S ≤ 4)
same,Susceptibility to GEN,[54],S (Gentamicin (GEN) S ≤ 4)
same,Susceptibility to GEN,[55],S (Gentamicin (GEN) S ≤ 4)
same,Susceptibility to GEN,[56],I
same,Susceptibility to GEN,[57],S (Gentamicin (GEN) S ≤ 4)
same,Susceptibility to GEN,[58],S (Gentamicin (GEN) S ≤ 4)
